Data from patent US20220265629A1, “TREATMENT OF SYSTOLIC DYSFUNCTION AND HEART FAILURE WITH REDUCED EJECTION FRACTION WITH THE COMPOUND (R)-4-(1-((3-(DIFLUOROMETHYL)-1-METHYL-1H-PYRAZOL-4-YL)SULFONYL)-1-FLUOROETHYL)-N-(ISOXAZOL-3-YL)PIPERIDINE-1-CARBOXAMIDE” (MyoKardia, Inc., priority 2019, published 2022).
Read-outs that look alike come from different tables or passages of the source.

Assay: Food effect cross-over study, 200 mg (25 mg tablets), healthy volunteers: plasma pharmacokinetics
Type: in vivo, human
Details: for concentration at 36 h / concentration at 48 h / concentration at 72 h / AUC(0-inf) / AUC(0-t) / Cmax / Tmax / MRT / half-life: human, plasma; for concentration at 36 h: 36 hours postdose; for concentration at 48 h: 48 hours postdose; for concentration at 72 h: 72 hours postdose
Description: This example describes a clinical study for establishing, in healthy volunteers, the effect of a high fat, high caloric meal on the PK profile of Compound I, as compared to administration of the drug in the fasted state. The study also was intended to determine the safety and tolerability after a single oral dose of Compound I in the fed and fasted state in healthy volunteers. The measurements of PK, PD, and other clinical parameters were done as described in Example 1 above.
This study was an open-label, randomized, two-period cross-over study in healthy volunteers aged 18-55 years. Subjects were screened up to 28 days before the first treatment period. Subjects were admitted to the clinical site on Day −1 (the day before dosing) of Period 1. Approximately half of the subjects randomly received a single dose of Compound I on Day 1 of the first treatment period after the ingestion of a high fat, high caloric breakfast, and the remainder were closed in the fasted state. Any subject with a preclose resting HR≥95 beats per minute (bpm) was considered ineligible and was not treated. Any subjects with an acute gastrointestinal disorder which could impact drug/food absorption (e.g., vomiting, diarrhea) were rescheduled. Subjects were confined to the clinic until Day 4, and discharged after the 72-hour postclose PK and laboratory samples and vital signs were obtained. After a washout between dosing from 7 to 10 days (or, after consultation with the Investigator, up to 21 days after initial dosing if the subject was unable to attend within the 7 to 10-day window), the subject was admitted for Period 2. The sequence of fed/fasted versus fasted/fed periods was randomized. Subjects returned after the second treatment period for a safety follow-up visit on Day 7 (±1 day).
In both treatment periods, Compound I was administered with 240 mL of water. In the fasted state, the subjects fasted for 10 hours before and for 4 hours after the administration of Compound I. Water could have been ingested up to 1 hour before and after 1 hour post dosing. In the fed state, the subjects fasted for 10 hours before and for 4 hours after the ingestion of the meal, but could have ingested water up to 1 hour before and 1 hour after dosing. In the fed state, the subjects started ingesting the high fat, high caloric meal within 30 minutes prior to Compound I administration and finished the meal within 30 minutes. The meal contained approximately 800 to 1000 calories with about 50% of the calories from fat. The meal consisted of approximately 150 calories from protein, 250 calories from carbohydrate, and 500-600 calories from fat. An example of the meal was a breakfast consisting of two eggs fried in butter, two strips of bacon, two slices of buttered toast, 4 ounces of hash brown potatoes, and 8 ounces of whole milk.
Each subject received two oral doses of 200 mg of Compound I formulated as 25 mg tablets (8 tablets) in a randomized, cross-over fashion, once in the fasted state and the other time after the ingestion of a high fat, high caloric breakfast. There was a washout of between 7 and 21 days between the administrations of the two closes. The Compound I drug substance was a crystalline, free-base, synthetic molecule with a molecular weight of 435.4.
Plasma drug concentrations were measured as described in Example 1 above. Blood samples to measure Compound I plasma concentration were collected at various time points, including on Day 1 preclose (1 hour prior to dosing) and at 1 (±5 min), 2 (±5 min), 3 (±5 min), 4 (+10 min), 5 (+10 min), 6 (+10 min), 9 (+20 min), 12 (+20 min), 18 (+30 min), 24 (+30 min), 36 (+30 min), 48 (+30 min), and 72 (+30 min) hours postclose on both treatment periods.
To assess the effect of food on the PK of Compound I, the two one-sided t-test procedure was used to construct 90% CI around the geometric mean ratios (fed/fasted) of plasma AUCinf, AUClast, and Cmax. […]

[1] = oral, Fed, read-out: Plasma concentration, Geometric Mean
[2] = oral, Fed, read-out: Plasma concentration, Mean
[3] = oral, Fed, read-out: Plasma concentration, Median
[4] = oral, Fasted, read-out: Plasma concentration, Geometric Mean
[5] = oral, Fasted, read-out: Plasma concentration, Mean
[6] = oral, Fasted, read-out: Plasma concentration, Median
[7] = subjects who completed both fasted and fed periods (N = 9)
[8] = subjects who completed both periods (N = 9)

SMILES: Cn1cc(S(=O)(=O)[C@@](C)(F)C2CCN(C(=O)Nc3ccon3)CC2)c(C(F)F)n1 [Compound I, (R)-4-(1-((3-(difluoromethyl)-1-methyl-1H-pyrazol-4-yl)sulfonyl)-1-fluoroethyl)-N-(isoxazol-3-yl)piperidine-1-carboxamide]
- concentration at 36 h [1]: 834 ng/mL
- concentration at 36 h [2]: 881 ng/mL
- concentration at 36 h [3]: 905 ng/mL
- concentration at 48 h [4]: 306 ng/mL
- concentration at 48 h [5]: 331 ng/mL
- concentration at 48 h [6]: 346 ng/mL
- concentration at 48 h [1]: 476 ng/mL
- concentration at 48 h [2]: 526 ng/mL
- concentration at 48 h [3]: 549 ng/mL
- concentration at 72 h [4]: 93.2 ng/mL
- concentration at 72 h [5]: 108 ng/mL
- concentration at 72 h [6]: 112 ng/mL
- concentration at 72 h [1]: 129 ng/mL
- concentration at 72 h [2]: 161 ng/mL
- concentration at 72 h [3]: 143 ng/mL
- AUC(0-inf) (oral, N = 11, read-out: AUCinf, Fasted LSGM): 59400 ng·h/mL
- AUC(0-inf) (oral, N = 11, read-out: AUCinf, Fed LSGM): 91600 ng·h/mL
- AUC(0-t) (oral, N = 11, read-out: AUClast, Fasted LSGM): 57400 ng·h/mL
- AUC(0-t) (oral, N = 11, read-out: AUClast, Fed LSGM): 88400 ng·h/mL
- Cmax (oral, N = 11, read-out: Cmax, Fasted LSGM): 2300 ng/mL
- Cmax (oral, N = 11, read-out: Cmax, Fed LSGM): 3640 ng/mL
- Cmax (oral, fasted state, read-out: Cmax of mean plasma concentrations): 2310 ng/mL
- Cmax (oral, fasted state, read-out: Cmax, Mean (SD)): 2350 ng/mL
- Tmax (oral, fasted state, read-out: Tmax, Median (range)): 5 h
- Tmax (oral, fasted state, read-out: tmax of mean plasma concentrations): 5 h
- Cmax (oral, fed state, read-out: Cmax of mean plasma concentrations): 3200 ng/mL
- Cmax (oral, fed state, read-out: Cmax, Mean (SD)): 3680 ng/mL
- Tmax (oral, fed state, read-out: Tmax, Median (range)): 5.5 h
- Tmax (oral, fed state, read-out: tmax of mean plasma concentrations): 6 h
- AUC(0-inf) (oral, subjects who completed both fasted and fed periods (N = 9), read-out: AUCinf, Fasted LSGM): 61100 ng·h/mL
- AUC(0-inf) (oral, subjects who completed both fasted and fed periods (N = 9), read-out: AUCinf, Fed LSGM): 93900 ng·h/mL
- AUC(0-t) (oral, subjects who completed both fasted and fed periods (N = 9), read-out: AUClast, Fasted LSGM): 59000 ng·h/mL
- AUC(0-t) (oral, subjects who completed both fasted and fed periods (N = 9), read-out: AUClast, Fed LSGM): 90500 ng·h/mL
- Cmax (oral, subjects who completed both fasted and fed periods (N = 9), read-out: Cmax, Fasted LSGM): 2370 ng/mL
- Cmax (oral, subjects who completed both fasted and fed periods (N = 9), read-out: Cmax, Fed LSGM): 3700 ng/mL
- AUC(0-inf) (po, single 200 mg oral dose, Fasted (N = 10), read-out: AUCinf, Geometric Mean): 61000 ng·h/mL
- AUC(0-inf) (po, single 200 mg oral dose, Fasted (N = 10), read-out: AUCinf, Mean): 62600 ng·h/mL
- AUC(0-inf) (po, single 200 mg oral dose, Fasted (N = 10), read-out: AUCinf, Median): 66700 ng·h/mL
- AUC(0-t) (po, single 200 mg oral dose, Fasted (N = 10), read-out: AUClast, Geometric Mean): 58800 ng·h/mL
- AUC(0-t) (po, single 200 mg oral dose, Fasted (N = 10), read-out: AUClast, Mean): 60200 ng·h/mL
- AUC(0-t) (po, single 200 mg oral dose, Fasted (N = 10), read-out: AUClast, Median): 64400 ng·h/mL
- Cmax (po, single 200 mg oral dose, Fasted (N = 10), read-out: Cmax, Geometric Mean): 2320 ng/mL
- Cmax (po, single 200 mg oral dose, Fasted (N = 10), read-out: Cmax, Mean): 2350 ng/mL
- Cmax (po, single 200 mg oral dose, Fasted (N = 10), read-out: Cmax, Median): 2400 ng/mL
- MRT (po, single 200 mg oral dose, Fasted (N = 10), read-out: MRT, Geometric Mean): 22.3 h
- MRT (po, single 200 mg oral dose, Fasted (N = 10), read-out: MRT, Mean): 22.6 h
- MRT (po, single 200 mg oral dose, Fasted (N = 10), read-out: MRT, Median): 23.9 h
- half-life (po, single 200 mg oral dose, Fasted (N = 10), read-out: T1/2, z, Geometric Mean (converted)): 14.1 h
- half-life (po, single 200 mg oral dose, Fasted (N = 10), read-out: T1/2, z, Mean (converted)): 14.3 h
- half-life (po, single 200 mg oral dose, Fasted (N = 10), read-out: T1/2, z, Median (converted)): 14.9 h
- Tmax (po, single 200 mg oral dose, Fasted (N = 10), read-out: Tmax, Geometric Mean): 4.58 h
- Tmax (po, single 200 mg oral dose, Fasted (N = 10), read-out: Tmax, Mean): 4.7 h
- Tmax (po, single 200 mg oral dose, Fasted (N = 10), read-out: Tmax, Median): 5 h
- AUC(0-inf) (po, single 200 mg oral dose, Fed (N = 10), read-out: AUCinf, Geometric Mean): 91600 ng·h/mL
- AUC(0-inf) (po, single 200 mg oral dose, Fed (N = 10), read-out: AUCinf, Mean): 93500 ng·h/mL
- AUC(0-inf) (po, single 200 mg oral dose, Fed (N = 10), read-out: AUCinf, Median): 94000 ng·h/mL
- AUC(0-t) (po, single 200 mg oral dose, Fed (N = 10), read-out: AUClast, Geometric Mean): 88400 ng·h/mL
- AUC(0-t) (po, single 200 mg oral dose, Fed (N = 10), read-out: AUClast, Mean): 89900 ng·h/mL
- AUC(0-t) (po, single 200 mg oral dose, Fed (N = 10), read-out: AUClast, Median): 89300 ng·h/mL
- Cmax (po, single 200 mg oral dose, Fed (N = 10), read-out: Cmax, Geometric Mean): 3640 ng/mL
- Cmax (po, single 200 mg oral dose, Fed (N = 10), read-out: Cmax, Mean): 3680 ng/mL
- Cmax (po, single 200 mg oral dose, Fed (N = 10), read-out: Cmax, Median): 3770 ng/mL
- MRT (po, single 200 mg oral dose, Fed (N = 10), read-out: MRT, Geometric Mean): 22.6 h
- MRT (po, single 200 mg oral dose, Fed (N = 10), read-out: MRT, Mean): 23.1 h
- MRT (po, single 200 mg oral dose, Fed (N = 10), read-out: MRT, Median): 23.6 h
- half-life (po, single 200 mg oral dose, Fed (N = 10), read-out: T1/2, z, Geometric Mean (converted)): 13.6 h
- half-life (po, single 200 mg oral dose, Fed (N = 10), read-out: T1/2, z, Mean (converted)): 13.8 h
- half-life (po, single 200 mg oral dose, Fed (N = 10), read-out: T1/2, z, Median (converted)): 13.5 h
- Tmax (po, single 200 mg oral dose, Fed (N = 10), read-out: Tmax, Geometric Mean): 6.02 h
- Tmax (po, single 200 mg oral dose, Fed (N = 10), read-out: Tmax, Mean): 6.9 h
- Tmax (po, single 200 mg oral dose, Fed (N = 10), read-out: Tmax, Median): 5.5 h
- AUCinf, Geometric Mean Ratio - Fed/Fasted (% of Reference) [7]: 153.63%
- AUClast, Geometric Mean Ratio - Fed/Fasted (% of Reference) [7]: 153.20%
- Cmax, Geometric Mean Ratio - Fed/Fasted (% of Reference) [7]: 156.43%
- Cmax, geometric mean ratio (fed/fasted) [8]: 156.43%
- increases for AUCinf, AUC0-t and Cmax in the fed state [8]: approximately 50%
